Literature values, collected in patent US20050107420A1 (Boehringe Ingelheim Pharma GmbH & Co. KG, priority 2002, published 2005).
Blank lines part the entries; values can stand above or below the molecule they belong to.

Assays:
[1] = in vivo
[2] = tested on: TNF release and lymphocyte proliferation; conditions: oral dose of 300 mg
[3] = tested on: catalytic site (Sc) of PDE4
[4] = oral administration, clinical conditions
PDE4B mutant enzyme = conditions: alanine for aspartate substitution
[5] = guinea-pig
[6] = rat
[7] = tested on: PDE4 derived from tumor cells; conditions: read-out: IC50 against a PDE4 derived from tumor cells
tumor cells = conditions: micromolar concentrations
[8] = antigen-challenged pig
PDE4D isoform = PDE4D isoform (Homo sapiens, UniProt Q08499)
[9] = in vivo; remark: listed apart in the source
[10] = not given; remark: listed apart in the source
[11] = human, in vivo

Sequence of PDE4D isoform (Q08499 whole entry, canonical isoform): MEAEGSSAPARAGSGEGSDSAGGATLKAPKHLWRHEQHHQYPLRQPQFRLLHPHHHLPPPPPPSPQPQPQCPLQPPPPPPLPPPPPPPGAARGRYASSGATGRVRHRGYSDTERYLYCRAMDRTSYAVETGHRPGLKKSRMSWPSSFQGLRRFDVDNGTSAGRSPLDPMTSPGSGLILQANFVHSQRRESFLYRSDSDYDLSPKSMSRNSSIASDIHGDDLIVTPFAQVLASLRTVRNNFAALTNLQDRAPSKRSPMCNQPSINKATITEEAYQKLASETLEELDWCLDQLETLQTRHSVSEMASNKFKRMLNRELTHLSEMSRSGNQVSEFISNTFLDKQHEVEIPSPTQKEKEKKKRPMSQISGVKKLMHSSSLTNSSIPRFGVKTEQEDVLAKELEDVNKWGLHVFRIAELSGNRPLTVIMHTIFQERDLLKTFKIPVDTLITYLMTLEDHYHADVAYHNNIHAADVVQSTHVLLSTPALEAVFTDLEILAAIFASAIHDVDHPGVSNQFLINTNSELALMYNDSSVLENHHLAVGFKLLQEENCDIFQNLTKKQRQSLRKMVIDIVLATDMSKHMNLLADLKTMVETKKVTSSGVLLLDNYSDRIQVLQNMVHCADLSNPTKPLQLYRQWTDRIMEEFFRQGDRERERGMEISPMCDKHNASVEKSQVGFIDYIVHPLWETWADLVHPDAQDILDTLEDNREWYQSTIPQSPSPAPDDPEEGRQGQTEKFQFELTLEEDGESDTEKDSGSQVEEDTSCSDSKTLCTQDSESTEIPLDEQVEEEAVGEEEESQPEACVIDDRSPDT

SMILES: COc1ccc([C@@H](Cc2ccncc2)c2ccccc2)cc1OC1CCCC1 [CT-1731]
elevation of cAMP, activity relative to enantiomer CDP840 (cAMP): less active

SMILES: CCCOc1ccccc1-c1nc2[nH]nnc2c(=O)[nH]1 [zaprinast]
bronchodilation [1]: Unsatisfactory results

SMILES: CCNc1ncn(Cc2ccc(OC)c(OC3CCCC3)c2)c2nc(C(C)C)nc1-2 [Formula V-11294A]
TNF levels and lymphocyte proliferation ex vivo [2]: effective in reducing TNF levels and lymphocyte proliferation

SMILES: COc1cc(-c2ccc(=O)[nH]n2)ccc1OC(F)F [zardaverine]
bronchodilation [1]: only a modest and short-lived bronchodilation

SMILES: COc1ccc([C@H](Cc2ccncc2)c2ccccc2)cc1OC1CCCC1 [CDP840]
late reactions to inhaled allergen (9.5 days oral administration, 15 and 30 mg, patients with bronchial asthma): suppression of late reactions to inhaled allergen | late-phase response in the treatment of asthma (human, in vivo): significant inhibition | potency at the Sc [3]: significantly higher potency at the Sc than does SB-207,499

SMILES: CSc1ccc(C(=O)c2[nH]c(=O)[nH]c2C)cc1 [enoximone]
mean pulmonary artery pressure [4]: decreases in mean pulmonary artery pressure

SMILES: CCOc1cc2cc(C(=O)O)sc2cc1OCC [tibenelast]
bronchodilation [1]: Unsatisfactory results

SMILES: COc1ccc(C(=O)Nc2c(Cl)cncc2Cl)cc1OC1CCCC1 [RP-73,401]
potency on the mutant PDE4B enzyme (PDE4B mutant enzyme): lose potency | inhibition of antigen-induced airway eosinophilia and PAF- and ozone-induced airway hyper-responsiveness (AHR) [5]: active | inhibition of antigen-induced bronchoalveolar lavage (BAL) eosinophilia [5]: active | inhibition of antigen-induced lung eosinophilia and eosinophil peroxidase (EPO) [5]: active

SMILES: COc1cc2c3c(c1)C(c1ccccc1)=N[C@@H](NC(=O)c1cc4ccccc4cn1)C(=O)N3CC2 [CI-1018]
oral potency, ED50 [6]: 5 mg/kg

potency on the mutant PDE4B enzyme (PDE4B mutant enzyme): lose potency
SMILES: COc1ccc(C2CNC(=O)C2)cc1OC1CCCC1 (centres unmarked) [rolipram]
stimulation of acid secretion from gastric parietal cells (gastric parietal cells): very potent stimulator

IC50 [7]: 16 nM
SMILES: Clc1nc2c(N3CCCC3)nc(C3CCNCC3)nc2nc1NCc1ccccc1 [Formula (0.1.55)]
inhibition of the growth of tumor cells (tumor cells): inhibit the growth of tumor cells at micromolar concentrations

SMILES: CCCn1c(=O)c2c(C)nc(CC)n2c2nc(OC)ccc21 [Formula D-22888]
anti-allergic effect [8]: strong anti-allergic affect | rhinorrhea [8]: inhibit rhinorrhea

selectivity for inhibition of the PDE4D isoform (PDE4D isoform): 100 fold
SMILES: O=C(NCc1ccccc1Cl)c1cccnc1Oc1ccc(F)cc1 [Formula (0.1.58)]

SMILES: COc1ccc(C2CNC(=O)NC2)cc1OC1CC2CCC1C2 (centres unmarked) [CP-80,633]
emesis, nausea and vomiting [9]: elicit emesis

SMILES: C[N+]1(C)C2CC(OC(=O)C(O)(c3cccs3)c3cccs3)CC1C1OC12 (stereo not drawn) [tiotropium, (1α, 2β, 4β, 5α, 7β)-7-[(hydroxydi-2-thienylacetyl)oxy]-9,9-dimethyl-3-oxa-9-azoniatricyclo[3.3.1.0^2,4]nonane bromide]
duration of action ([10]; in vivo): prolonged duration of action

potency on the mutant PDE4B enzyme (PDE4B mutant enzyme): lose potency
SMILES: COc1ccc(CC2CNC(=O)N2)cc1OC1CCCC1 (centres unmarked) [Ro-20-1724]

potency or selectivity for PDE4D relative to other subtypes, in words (PDE4D isoform): more potent against PDE4D
SMILES: O=c1c2cccnc2n(-c2cccc([N+](=O)[O-])c2)c(=O)n1Cc1ccncc1 [RS-25,344]

SMILES: CC[N+]1(C)[C@@H]2CC(OC(=O)[C@H](CO)c3ccccc3)C[C@H]1[C@@H]1O[C@@H]12 (some centres unmarked) [oxitropium]
change in heart rate, blood pressure, bladder function, intraocular pressure, or pupillary diameter ([10]; inhaled at several times the recommended dose): little or no change

SMILES: Cn1c(=O)c2[nH]cnc2n(C)c1=O [theophylline]
neutrophil counts in the sputum of COPD patients [11]: reduces neutrophil counts

potency or selectivity for PDE4D relative to other subtypes, in words (PDE4D isoform): PDE4D selective inhibitor
SMILES: N#Cc1cccc(-c2nc(-c3ccc(C(=O)O)cc3)cc3cccnc23)c1 [Formula (0.1.59)]

SMILES: COc1cc2c(cc1OC)[C@@H]1CN(C)CC[C@@H]1N=C2c1ccc(NC(C)=O)cc1 [benafentrine]
bronchodilation [1]: bronchodilation only when administered by inhalation
